Earlier results in patent US20050255076A1, “Therapeutic cream for dermatitis” (priority 2004, published 2005).

Settings: in alcohol and in water

Q: For C[S+](C)[O-] [Dimethyl sulfoxide], which “Properties: solubility” value is on record?
A: Soluble in alcohol and water
